Experimental data as given in patent US9174952B2, “Substituted 3-thiazoloamino-propionic acid derivatives and their use as pharmaceuticals” (SANOFI, priority 2011, dated 2015).

Target: T1, Recombinant human cathepsin A (Homo sapiens, UniProt P10619)
T1 construct: Recombinant human cathepsin A (residues 29-480, with a C-terminal 10-His tag); 10-His (C); purchased R&D Systems 1049-SE
T1 sequence (P10619 29-326 limits assumed): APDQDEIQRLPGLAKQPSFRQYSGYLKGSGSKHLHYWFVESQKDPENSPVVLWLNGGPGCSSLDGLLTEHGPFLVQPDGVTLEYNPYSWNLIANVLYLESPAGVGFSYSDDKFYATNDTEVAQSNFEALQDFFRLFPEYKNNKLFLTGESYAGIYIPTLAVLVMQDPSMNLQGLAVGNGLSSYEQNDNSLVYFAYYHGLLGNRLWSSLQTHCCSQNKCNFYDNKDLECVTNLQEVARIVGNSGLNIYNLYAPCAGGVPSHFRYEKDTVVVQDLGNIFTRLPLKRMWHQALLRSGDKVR
T1 sequence (P10619 327-480 limits assumed): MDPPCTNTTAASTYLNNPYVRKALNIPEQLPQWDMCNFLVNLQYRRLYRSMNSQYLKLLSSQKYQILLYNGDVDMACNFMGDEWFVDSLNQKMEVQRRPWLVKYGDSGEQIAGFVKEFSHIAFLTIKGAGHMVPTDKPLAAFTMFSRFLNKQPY
Experiment: Cathepsin A inhibitory activity
Type: biochemical
Conditions: activated recombinant human cathepsin A 833 ng/ml, Bodipy FL-labeled bradykinin substrate 2 μM, pH 5.5, room temperature
Procedure: a) Cathepsin A Inhibitory Activity
Recombinant human cathepsin A (residues 29-480, with a C-terminal 10-His tag; R&D Systems, #1049-SE) was proteolytically activated with recombinant human cathepsin L (R&D Systems, #952-CY). Briefly, cathepsin A was incubated at 10 μg/ml with cathepsin L at 1 μg/ml in activation buffer (25 mM 2-(morpholin-4-yl)-ethanesulfonic acid (MES), pH 6.0, containing 5 mM dithiothreitol (DTT)) for 15 min at 37° C. Cathepsin L activity was then stopped by the addition of the cysteine protease inhibitor E-64 (N-(trans-epoxysuccinyl)-L-leucine-4-guanidinobutylamide; Sigma-Aldrich, # E3132; dissolved in activation buffer/DMSO) to a final concentration of 10 μM.
The activated cathepsin A was diluted in assay buffer (25 mM MES, pH 5.5, containing 5 mM DTT) and mixed with the test compound (dissolved in assay buffer containing (v/v) 3% DMSO) or, in the control experiments, with the vehicle in a multiple assay plate. After incubation for 15 min at room temperature, as substrate then bradykinin carrying an N-terminal ®Bodipy FL (4,4-difluoro-5,7-dimethyl-4-bora-3a,4a-diaza-s-indacene-3-propionyl) label (JPT Peptide Technologies GmbH; dissolved in assay buffer) was added to the mixture. The final concentration of cathepsin A was 833 ng/ml and the final concentration of labeled bradykinin 2 μM. After incubation for 15 min at room temperature the reaction was stopped by the addition of stop buffer (130 mM 2-(4-(2-hydroxy-ethyl)-piperazin-1-yl)-ethanesulfonic acid, pH 7.4, containing (v/v) 0.013% ®Triton X-100, 0.13% Coating Reagent 3 (Caliper Life Sciences), 6.5% DMSO and 20 μM ebelactone B (Sigma, # E0886)).
Uncleaved substrate and product were then separated by a microfluidic capillary electrophoresis on a LabChip® 3000 Drug Discovery System (12-Sipper-Chip; Caliper Life Sciences) and quantified by determination of the respective peak areas. Substrate turnover was calculated by dividing product peak area by the sum of substrate and product peak areas, and the enzyme activity and the inhibitory effect of the test compound thus quantified. From the percentage of inhibition of cathepsin A activity observed with the test compound at several concentrations, the inhibitory concentration IC50, i.e. the concentration which effects 50% inhibition of enzyme activity was, calculated.

Structure (SMILES) | IC50
O=C(O)C[C@H](NC(=O)c1csc(-c2ccccc2F)n1)c1ccccc1Cl [Example 30, (S)-3-(2-Chloro-phenyl)-3-{[2-(2-fluoro-phenyl)-thiazole-4-carbonyl]-amino}-propionic acid] | 377 nM
O=C(O)C[C@H](NC(=O)c1csc(-c2cccc(Cl)c2)n1)c1ccccc1Cl [Example 31, (S)-3-(2-Chloro-phenyl)-3-{[2-(3-chloro-phenyl)-thiazole-4-carbonyl]-amino}-propionic acid] | 703 nM
O=C(O)C[C@H](NC(=O)c1csc(-c2ccc(Cl)cc2)n1)c1ccccc1Cl [Example 32, (S)-3-(2-Chloro-phenyl)-3-{[2-(4-chloro-phenyl)-thiazole-4-carbonyl]-amino}-propionic acid] | 1400 nM
O=C(O)C[C@H](NC(=O)c1csc(-c2ccc(C(F)(F)F)cc2)n1)c1ccccc1Cl [Example 33, (S)-3-(2-Chloro-phenyl)-3-{[2-(4-trifluoromethyl-phenyl)-thiazole-4-carbonyl]-amino}-propionic acid] | 3110 nM
Cc1ccccc1-c1nc(C(=O)N[C@@H](CC(=O)O)c2ccccc2F)cs1 [Example 34, (S)-3-(2-Fluoro-phenyl)-3-[(2-o-tolyl-thiazole-4-carbonyl)-amino]-propionic acid] | 313 nM
O=C(O)C[C@H](NC(=O)c1csc(-c2ccccc2)n1)c1ccccc1F [Example 35, (S)-3-(2-Fluoro-phenyl)-3-[(2-phenyl-thiazole-4-carbonyl)-amino]-propionic acid] | 1480 nM
O=C(O)C[C@H](NC(=O)c1csc(-c2ccccc2F)n1)c1ccccc1F [Example 36, (S)-3-(2-Fluoro-phenyl)-3-{[2-(2-fluoro-phenyl)-thiazole-4-carbonyl]-amino}-propionic acid] | 659 nM
O=C(O)C[C@H](NC(=O)c1csc(-c2ccc(C(F)(F)F)cc2)n1)c1ccccc1F [Example 37, (S)-3-(2-Fluoro-phenyl)-3-{[2-(4-trifluoromethyl-phenyl)-thiazole-4-carbonyl]-amino}-propionic acid] | 14700 nM
O=C(O)C[C@H](NC(=O)c1csc(-c2ccc(C(F)(F)F)cc2)n1)c1ccccc1C(F)(F)F [Example 38, (S)-3-(2-Trifluoromethyl-phenyl)-3-{[2-(4-trifluoromethyl-phenyl)-thiazole-4-carbonyl]-amino}-propionic acid] | 23300 nM
Cc1ccccc1-c1nc(C(=O)N[C@@H](CC(=O)O)c2cccc(Cl)c2)cs1 [Example 39, (S)-3-(3-Chloro-phenyl)-3-[(2-o-tolyl-thiazole-4-carbonyl)-amino]-propionic acid] | 807 nM
O=C(O)C[C@H](NC(=O)c1csc(-c2ccccc2)n1)c1cccc(Cl)c1 [Example 40, (S)-3-(3-Chloro-phenyl)-3-[(2-phenyl-thiazole-4-carbonyl)-amino]-propionic acid] | 821 nM
O=C(O)C[C@H](NC(=O)c1csc(-c2cccc(Cl)c2Cl)n1)c1cccc(Cl)c1 [Example 41, (S)-3-(3-Chloro-phenyl)-3-{[2-(2,3-dichloro-phenyl)-thiazole-4-carbonyl]-amino}-propionic acid] | 583 nM
O=C(O)C[C@H](NC(=O)c1csc(-c2ccccc2Cl)n1)c1cccc(Cl)c1 [Example 42, (S)-3-(3-Chloro-phenyl)-3-{[2-(2-chloro-phenyl)-thiazole-4-carbonyl]-amino}-propionic acid] | 238 nM
O=C(O)C[C@H](NC(=O)c1csc(-c2ccccc2F)n1)c1cccc(Cl)c1 [Example 43, (S)-3-(3-Chloro-phenyl)-3-{[2-(2-fluoro-phenyl)-thiazole-4-carbonyl]-amino}-propionic acid] | 694 nM
O=C(O)C[C@H](NC(=O)c1csc(-c2cccc(Cl)c2)n1)c1cccc(Cl)c1 [Example 44, (S)-3-(3-Chloro-phenyl)-3-{[2-(3-chloro-phenyl)-thiazole-4-carbonyl]-amino}-propionic acid] | 2980 nM
O=C(O)C[C@H](NC(=O)c1csc(-c2ccc(Cl)cc2)n1)c1cccc(Cl)c1 [Example 45, (S)-3-(3-Chloro-phenyl)-3-{[2-(4-chloro-phenyl)-thiazole-4-carbonyl]-amino}-propionic acid] | 3540 nM
O=C(O)C[C@H](NC(=O)c1csc(-c2ccc(C(F)(F)F)cc2)n1)c1cccc(Cl)c1 [Example 46, (S)-3-(3-Chloro-phenyl)-3-{[2-(4-trifluoromethyl-phenyl)-thiazole-4-carbonyl]-amino}-propionic acid] | 10500 nM
Cc1ccccc1-c1nc(C(=O)N[C@@H](CC(=O)O)c2cccc(F)c2)cs1 [Example 47, (S)-3-(3-Fluoro-phenyl)-3-[(2-o-tolyl-thiazole-4-carbonyl)-amino]-propionic acid] | 280 nM
O=C(O)C[C@H](NC(=O)c1csc(-c2ccccc2)n1)c1cccc(F)c1 [Example 48, (S)-3-(3-Fluoro-phenyl)-3-[(2-phenyl-thiazole-4-carbonyl)-amino]-propionic acid] | 955 nM
O=C(O)C[C@H](NC(=O)c1csc(-c2ccccc2F)n1)c1cccc(F)c1 [Example 49, (S)-3-(3-Fluoro-phenyl)-3-{[2-(2-fluoro-phenyl)-thiazole-4-carbonyl]-amino}-propionic acid] | 724 nM
O=C(O)C[C@H](NC(=O)c1csc(-c2ccc(C(F)(F)F)cc2)n1)c1cccc(F)c1 [Example 50, (S)-3-(3-Fluoro-phenyl)-3-{[2-(4-trifluoromethyl-phenyl)-thiazole-4-carbonyl]-amino}-propionic acid] | > 10000 nM
O=C(O)C[C@H](NC(=O)c1nc(-c2ccccc2)cs1)c1ccc(F)cc1 [Example 51, (S)-3-(4-Fluoro-phenyl)-3-[(4-phenyl-thiazole-2-carbonyl)-amino]-propionic acid] | 457 nM
COc1cccc([C@H](CC(=O)O)NC(=O)c2csc(-c3ccccc3)n2)c1 [Example 52, (S)-3-(3-Methoxy-phenyl)-3-[(2-phenyl-thiazole-4-carbonyl)-amino]-propionic acid] | 2860 nM
O=C(O)C[C@H](NC(=O)c1nc(-c2ccccc2)cs1)c1ccccc1F [Example 53, (S)-3-(2-Fluoro-phenyl)-3-[(4-phenyl-thiazole-2-carbonyl)-amino]-propionic acid] | 1750 nM
Cc1ccccc1-c1nc(C(=O)N[C@@H](CC(=O)O)c2ccc(F)cc2)cs1 [Example 54, (S)-3-(4-Fluoro-phenyl)-3-[(2-o-tolyl-thiazole-4-carbonyl)-amino]-propionic acid] | 303 nM
O=C(O)C[C@H](NC(=O)c1nc(-c2ccccc2)cs1)c1cccc(F)c1 [Example 55, (S)-3-(3-Fluoro-phenyl)-3-[(4-phenyl-thiazole-2-carbonyl)-amino]-propionic acid] | 542 nM
O=C(O)C[C@H](NC(=O)c1csc(-c2ccccc2F)n1)c1ccc(F)cc1 [Example 56, (S)-3-(4-Fluoro-phenyl)-3-{[2-(2-fluoro-phenyl)-thiazole-4-carbonyl]-amino}-propionic acid] | 1050 nM
O=C(N[C@H](C(=O)O)C1CCCCC1)c1csc(-c2cccc(Cl)c2)n1 [Example 57, (S)-{[2-(3-Chloro-phenyl)-thiazole-4-carbonyl]-amino}-cyclohexyl-acetic acid] | > 10000 nM
O=C(N[C@@H](Cc1ccc(Cl)cc1)C(=O)O)c1csc(-c2ccccc2)n1 [Example 58, (S)-3-(4-Chloro-phenyl)-2-[(2-phenyl-thiazole-4-carbonyl)-amino]-propionic acid] | 22000 nM
COc1ccc([C@H](CC(=O)O)NC(=O)c2csc(-c3ccccc3)n2)cc1 [Example 59, (S)-3-(4-Methoxy-phenyl)-3-[(2-phenyl-thiazole-4-carbonyl)-amino]-propionic acid] | 976 nM
